Key:
[1] = test system: c-myc G-quadruplex DNA (DNA, G4) TGGGGAGGGTGGGGAGGGTGGGGAAGG; assay: UV-vis titration; conditions: 100 mM KCl
[2] = test system: c-myc G-quadruplex DNA (DNA, G4) TGGGGAGGGTGGGGAGGGTGGGGAAGG; assay: fluorescent intercalator displacement; conditions: 100 mM KCl, thiazole orange 1 μM displaced, DNA 0.5 μM
[3] = test system: c-myc G-quadruplex DNA FRET probe (FAM/TAMRA) (DNA, G4) TGGGGAGGGTGGGGAGGGTGGGGAAGG; assay: FRET melting; conditions: 100 mM KCl, 10 mM Na3AsO4; 10 mM Tris-HCl pH 7.4; 0.2 μM DNA; complex 0.15 or 0.30 μM, not given
[4] = test system: human lung cancer A549 cells; assay: MTT assay, A549; type: cell-based; conditions: 72 h, 570 nm
[5] = test system: human breast cancer MCF-7 cells; assay: MTT assay, MCF-7; type: cell-based; conditions: 72 h, 570 nm
[6] = test system: human liver carcinoma HepG2 cells; assay: MTT assay, HepG2; type: cell-based; conditions: 72 h, 570 nm
[7] = test system: human glioblastoma U87 cells; assay: MTT assay, U87; type: cell-based; conditions: 72 h, 570 nm
[8] = test system: human keratinocyte Hacat cells; assay: Cytotoxic activity against Hacat cells; type: cell-based; conditions: 72 h incubation
Protocol: The cytotoxic activity of the ligands and arene Ru(II)-modified compounds […] 1 . The cytotoxic activities of complexes against human keratinocyte […] 72 h incubation. Comp. L1 L2 3 6 […] 7. Multiple gene expression in glioblastoma multiforme Figure S20. Multiple gene expression in glioblastoma multiforme(Copyright © 2017 […], Boxi Kang. Zhang's Lab.). The darker the color, the higher the gene expression in glioblastoma multiforme. As shown in the heat map, c-myc gene is highly expressed in glioblastoma multiforme (GBM) compared with other G-quadruplex DNA (Tel, Bcl-2, c-kit, k-ras). 8. […]

human normal liver cells = assay: Toxicity to human normal liver cells; conditions: read-out: IC50 human normal liver cells
c-myc G-quadruplex DNA = assay: UV–vis absorption titration with c-myc G-quadruplex DNA; type: binding; conditions: 10 mM Tris-HCl buffer (pH 7.4), 100 mM KCl, [DNA]=100 μM
Protocol: Electron spectroscopy is one of the most widely used techniques to evaluate the binding ability between metal complexes and DNA. UV–vis spectra titration experiments were conducted to further clarify the binding behavior of these complexes with c-myc G-quadruplex DNA.
The intramolecular c-myc G-quadruplex DNA structure was prepared by incubating Pu22 in a 10 mM Tris-HCl buffer (pH 7.4) containing 100 mM KCl, which was heated to 95 °C for 5 min, cooled to room temperature overnight, and stored at 4 °C for 24 h. The binding parameters of the arene Ru(II) complexes and c-myc G-quadruplex DNA were measured at room temperature using the UV–vis absorption spectra (Shimadzu UV-2550 spectrophotometer). […] The intrinsic binding constant (Kb) was calculated using the following:[DNA]/(εa − εf) = [DNA]/(εb − εf) + 1/[Kb(εb − εf)](2)
In the formula, εa, εf, and εb are the apparent coefficients, and the free and fully bound forms of the metal complex extinction coefficients, respectively. […] Kb is the ratio of the slope to the intercept.

[9] = 10 mM Tris-HCl pH 7.4, room temperature, 20 μM complex
[10] = 10 mM Tris-HCl pH 7.4, room temperature

Row | Kb [1, 9] | DC50 [2, 10] | ΔTm [3] | IC50 [4] | IC50 [5] | IC50 [6] | IC50 [7] | SMILES | other results
1 | ~ 14.6 × 10^6 M^-1 | 15.6 µM | 0.4 °C |  |  |  |  | Cc1ccc(C(C)C)cc1.Fc1ccc(-c2nc3c4cccnc4c4ncccc4c3[nH]2)c(F)c1.[Cl-].[Ru+2] | 
2 | ~ 134 × 10^6 M^-1 | 10.26 µM | 5.07 °C |  |  |  |  | Cc1ccc(C(C)C)cc1.Fc1cccc(-c2nc3c4cccnc4c4ncccc4c3[nH]2)c1F.[Cl-].[Ru+2] | 
3 |  | 9.93 µM | 15.05 °C |  |  |  |  | Cc1ccccc1.Fc1cccc(-c2nc3c4cccnc4c4ncccc4c3[nH]2)c1F.[Cl-].[Ru+2] | Kb [1]: ~ 110 × 10^6 M^-1
4 |  |  |  | 7.99 ± 0.05 µM | 4.25 ± 0.18 µM | 0.29 ± 0.01 µM | 14.3 ± 0.47 µM | Fc1cccc(-c2nc3c4cccnc4c4ncccc4c3[nH]2)c1F [L1, 2-(2,3-Di-fluorophenyl) Imidazole [4,5f][1,10]-Phenanthroline] | IC50 [8]: 1.85 ± 0.03 µM; IC50 (human normal liver cells): 0.34 µM

Further lines, the compound ahead of its results:

Row | SMILES | Kb [1, 9] | DC50 [2, 10] | ΔTm [3] | IC50 [4] | IC50 [5] | IC50 [6] | IC50 [7] | other results
5 | Cc1ccccc1.Fc1ccc(-c2nc3c4cccnc4c4ncccc4c3[nH]2)c(F)c1.[Cl-].[Ru+2] |  | 10.8 µM | 6.03 °C |  |  |  |  | Kb [1]: ~ 41.1 × 10^6 M^-1
6 | Fc1ccc(-c2nc3c4cccnc4c4ncccc4c3[nH]2)c(F)c1 |  |  |  |  |  |  |  | binding ([1]; 10 mM Tris-HCl pH 7.4, DNA 100 μM, no significant absorption change): weak
7 | Fc1ccc(-c2nc3c4cccnc4c4ncccc4c3[nH]2)c(F)c1.[Cl-].[Ru+2].c1ccccc1 | ~ 48.3 × 10^6 M^-1 |  | 7.23 °C |  |  |  |  | DC50 ([2]; 10 mM Tris-HCl pH 7.4, text b19 prints 7.8): 7.6 µM
8 | Fc1cccc(-c2nc3c4cccnc4c4ncccc4c3[nH]2)c1F.[Cl-].[Ru+2].c1ccccc1 | ~ 67.5 × 10^6 M^-1 | 6.6 µM | 13.09 °C |  |  |  |  | 
9 | N.N.[Cl][Pt][Cl] [Cisplatin, reference compound] |  |  |  | 17.3 ± 0.26 µM | 15.3 ± 0.18 µM | 9.9 ± 0.06 µM | 32.6 ± 0.85 µM | 
10 | Fc1ccc(-c2nc3c4cccnc4c4ncccc4c3[nH]2)c(F)c1 [L2, 2-(2,4-Di-fluorophenyl) Imidazole[4,5f][1,10]-Phenanthroline] |  |  |  | 3.42 ± 0.13 µM | 1.48 ± 0.09 µM | 0.12 ± 0.01 µM | 5.87 ± 0.27 µM | IC50 [8]: 2.72 ± 0.06 µM; IC50 (human normal liver cells): 0.18 µM; UV absorption peak of the ligand after the addition of DNA (c-myc G-quadruplex DNA): did not change significantly
